Legend:
HDAC7 = biological target: T1, HDAC7 (Homo sapiens, UniProt Q8WUI4); assay: HDAC biochemical activity measurement (fluorescent substrate deacetylation);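 further: fluorogenic deacetylation assay using acetyl-lysine substrate at 20 µM, enzyme and compound incubated 30 min at 37 °C, then developer added, fluorescence read at 360/460 nm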; settings: HDAC7; 37° C. 30 minutes
T1 sequence (Q8WUI4 1-952): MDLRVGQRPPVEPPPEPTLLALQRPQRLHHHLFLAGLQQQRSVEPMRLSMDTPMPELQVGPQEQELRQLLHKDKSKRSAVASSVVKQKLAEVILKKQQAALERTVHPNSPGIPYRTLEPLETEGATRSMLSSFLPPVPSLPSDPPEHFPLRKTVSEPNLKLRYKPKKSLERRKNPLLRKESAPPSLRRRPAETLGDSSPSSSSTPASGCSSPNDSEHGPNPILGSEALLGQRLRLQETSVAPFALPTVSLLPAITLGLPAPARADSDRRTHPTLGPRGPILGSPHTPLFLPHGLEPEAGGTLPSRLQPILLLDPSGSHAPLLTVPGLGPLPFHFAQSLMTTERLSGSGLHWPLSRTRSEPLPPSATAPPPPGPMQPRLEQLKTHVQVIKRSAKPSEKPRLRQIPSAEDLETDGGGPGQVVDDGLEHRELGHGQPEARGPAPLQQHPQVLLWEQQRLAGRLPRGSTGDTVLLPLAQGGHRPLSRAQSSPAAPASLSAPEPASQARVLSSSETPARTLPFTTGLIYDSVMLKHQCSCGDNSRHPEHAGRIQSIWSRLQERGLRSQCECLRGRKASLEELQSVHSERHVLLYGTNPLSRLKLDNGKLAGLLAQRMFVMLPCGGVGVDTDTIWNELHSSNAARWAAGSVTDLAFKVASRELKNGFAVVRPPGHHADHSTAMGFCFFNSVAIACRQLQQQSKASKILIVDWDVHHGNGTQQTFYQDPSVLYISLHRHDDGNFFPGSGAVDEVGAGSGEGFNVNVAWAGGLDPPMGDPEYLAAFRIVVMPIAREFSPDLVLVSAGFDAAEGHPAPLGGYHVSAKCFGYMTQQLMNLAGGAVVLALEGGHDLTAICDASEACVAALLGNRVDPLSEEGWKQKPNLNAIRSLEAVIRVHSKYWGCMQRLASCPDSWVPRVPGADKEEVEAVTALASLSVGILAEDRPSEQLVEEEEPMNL

[1] = system: U937 (human leukemia cells); assay: MTT cancer cell growth inhibition; type: cell-based; settings: Homo sapiens, U-937, 72 h, MTT, 72 hours incubation; read-out: GI50 U93
Excerpt: (§1) MTT assay principle is yellow MTT can penetrate membrane into the cell, succinic dehydrogenase of the mitochondria in living cells can make exogenous MTT reduction of insoluble in water of blue-violet acicular formazan for crystallization and deposition in the cell, crystallization can be dissolved dimethyl sulfoxide (DMSO) solution, detected its absorbance at 490 nm/570 nm wavelength by enzyme-linked immunosorbent assay, which can reflect the number of cells.
(§2) Using DMEM+10% FBS culture medium or using 1640+10% FBS culture, respectively.
(§3) a) Cells were seeded in 96-well plates with the inoculation of 1500/well, 190 μl/hole, 37° C., 5% of CO2 incubator overnight;
(§4) b) The next day each well was added 10 μl of different drugs. The final concentration of drug was 10^−5˜10^−10M, three parallel holes; 37° C., 5% CO2 culture incubator for 72 hours incubation;
(§5) c) Per well was added 20 μl 5 mg/ml of MTT, 37° C., 5% CO2 culture incubator for 4 hours incubation;
(§6) d) The supernatant was discarded. Each well was added 100 μl of DMSO and oscillation;
(§7) e) 570 nm readings. Calculate cell viability. GI50 calculation based on the results.

[2] = system: KBM-5 (human chronic myelogenous leukemia); assay: MTT cancer cell growth inhibition; type: cell-based; settings: Homo sapiens, KBM5, 72 h, MTT, 72 hours incubation, KBM-5 cells; read-out: GI50 KBM-5
Excerpt: as §1, §2, §3, §4, §5, §6, §7

[3] = system: H1975 (non-small cell lung adenocarcinoma); assay: MTT cancer cell growth inhibition; type: cell-based; settings: Homo sapiens, NCI-H1975, 72 h, MTT, 72 hours incubation, H1975 cells; read-out: GI50 H1975
Excerpt: as §1, §2, §3, §4, §5, §6, §7

[4] = system: Hela (human cervical cancer cells); assay: MTT cancer cell growth inhibition; type: cell-based; settings: Homo sapiens, HeLa, 72 h, MTT, 72 hours incubation; read-out: GI50 Hela
Excerpt: as §1, §2, §3, §4, §5, §6, §7

[5] = system: PANC-1 (Pac-1, human pancreatic cancer cells); assay: MTT cancer cell growth inhibition; type: cell-based; settings: Homo sapiens, PANC-1, 72 h, MTT, 72 hours incubation; read-out: GI50 PAN
Excerpt: as §1, §2, §3, §4, §5, §6, §7

[6] = system: A549 (human lung cancer cells); assay: MTT cancer cell growth inhibition; type: cell-based; settings: Homo sapiens, A549, 72 h, MTT, 72 hours incubation; read-out: GI50 A54
Excerpt: as §1, §2, §3, §4, §5, §6, §7

[7] = system: K562 (human leukemia cells); assay: MTT cancer cell growth inhibition; type: cell-based; settings: Homo sapiens, K562, 72 h, MTT, 72 hours incubation, K562 cells; read-out: GI50 K562
Excerpt: as §1, §2, §3, §4, §5, §6, §7

[8] = system: Bel-7402 (human hepatoma cells); assay: MTT cancer cell growth inhibition; type: cell-based; settings: Homo sapiens, Bel-7402, 72 h, MTT, 72 hours incubation, Bel-7402 cells; read-out: GI50 Bel-7402
Excerpt: as §1, §2, §3, §4, §5, §6, §7

[9] = system: KBM5-T315I (human chronic myelogenous leukemia); assay: MTT cancer cell growth inhibition; type: cell-based; settings: Homo sapiens, 72 h, MTT, 72 hours incubation, KBM5-T315I cells; read-out: GI50 KBM5-T315I
Excerpt: as §1, §2, §3, §4, §5, §6, §7

[10] = system: N-87 (human gastric cancer cells); assay: MTT cancer cell growth inhibition; type: cell-based; settings: Homo sapiens, 72 h, MTT, 72 hours incubation, N-87 cells; read-out: GI50 N-87
Excerpt: as §1, §2, §3, §4, §5, §6, §7

[11] = system: Huh-7 (human hepatoma cells); assay: MTT cancer cell growth inhibition; type: cell-based; settings: Homo sapiens, Huh-7, 72 h, MTT, 72 hours incubation, Huh-7 cells; read-out: GI50 Huh-7
Excerpt: as §1, §2, §3, §4, §5, §6, §7

[12] = system: MOLT-4 (human acute lymphoblastic leukemia cells); assay: MTT cancer cell growth inhibition; type: cell-based; settings: Homo sapiens, MOLT-4, 72 h, MTT, 72 hours incubation; read-out: GI50 Mol
Excerpt: as §1, §2, §3, §4, §5, §6, §7

[13] = system: HT1080 (human fibrosarcoma cells); assay: MTT cancer cell growth inhibition; type: cell-based; settings: Homo sapiens, HT-1080, 72 h, MTT, 72 hours incubation; read-out: GI50 HT1
Excerpt: as §1, §2, §3, §4, §5, §6, §7

[14] = system: MDA-MB-231 (breast cancer cells); assay: MTT cancer cell growth inhibition; type: cell-based; settings: Homo sapiens, MDA-MB-231, 72 h, read-out: GI50 MDA-MB-231, MTT, 72 hours incubation, MDA-MB-231 cells
Excerpt: as §1, §2, §3, §4, §5, §6, §7

[15] = system: SGC-7901 (human gastric cancer cells); assay: MTT cancer cell growth inhibition; type: cell-based; settings: Homo sapiens, SGC-7901, 72 h, MTT, 72 hours incubation, SGC-7901 cells; read-out: GI50 SGC-7901
Excerpt: as §1, §2, §3, §4, §5, §6, §7

[16] = system: HCC827 (human non-small cell lung cancer cells); assay: MTT cancer cell growth inhibition; type: cell-based; settings: Homo sapiens, HCC827, 72 h, MTT, 72 hours incubation, HCC827 cells; read-out: GI50 HCC827
Excerpt: as §1, §2, §3, §4, §5, §6, §7

[17] = system: DU145 (human prostate cancer cells); assay: MTT cancer cell growth inhibition; type: cell-based; settings: Homo sapiens, DU-145, 72 h, MTT, 72 hours incubation; read-out: GI50 Du1
Excerpt: as §1, §2, §3, §4, §5, §6, §7

[18] = system: MCF-7 (human breast cancer cells); assay: MTT cancer cell growth inhibition; type: cell-based; settings: Homo sapiens, MCF7, 72 h, 72 hours incubation, read-out: GI50 MCF
Excerpt: as §1, §2, §3, §4, §5, §6, §7

[19] = system: lncap (prostate cancer cells); assay: MTT cancer cell growth inhibition; type: cell-based; settings: Homo sapiens, LNCaP, 72 h, MTT, 72 hours incubation; read-out: GI50 lnca
Excerpt: as §1, §2, §3, §4, §5, §6, §7

[20] = system: BGC-823 (human gastric cancer cells); assay: MTT cancer cell growth inhibition; type: cell-based; settings: Homo sapiens, BGC-823, 72 h, MTT, 72 hours incubation; read-out: GI50 BG
Excerpt: as §1, §2, §3, §4, §5, §6, §7

| Compound | IC50 HDAC7 (HDAC7) | GI50 [1] [µM] | GI50 [2] [µM] | GI50 [3] [µM] | GI50 [4] [µM] | GI50 [5] [µM] | GI50 [6] [µM] | GI50 [7] [µM] | GI50 [8] [µM] | GI50 [9] [µM] | GI50 [10] [µM] | GI50 [11] [µM] | GI50 [12] [µM] | GI50 [13] [µM] | GI50 [14] [µM] | GI50 [15] [µM] | GI50 [16] [µM] | GI50 [17] [µM] | GI50 [18] [µM] | GI50 [19] [µM] | further results |
| --- | --- | --- | --- | --- | --- | --- | --- | --- | --- | --- | --- | --- | --- | --- | --- | --- | --- | --- | --- | --- | --- |
| C/C=C1\NC(=O)c2ccc(F)c(n2)CNC(=O)C[C@@H](/C=C/CCS)OC(=O)[C@H](C)NC1=O [Compound 114] | no activity | 0.03 | 0.099 | 0.032 | 0.07 | 0.06 | 0.03 | 0.038 | 0.042 | 0.028 | 0.011 | 0.054 | 0.1 | 0.1 | 0.022 | 0.043 | 0.071 | 0.06 | 0.06 | 0.07 | GI50 [20]: 0.06 µM |
| C/C=C1\NC(=O)c2nc(ccc2F)CNC(=O)C[C@@H](/C=C/CCS)OC(=O)[C@H](Cc2ccccc2)NC1=O [Compound 115] | no activity | 0.04 | 0.053 | 0.023 | 0.08 | 0.06 | 0.04 | 0.041 | 0.036 | 0.028 | 0.045 | 0.099 | 0.08 | 0.08 | 0.036 | 0.023 | 0.041 | 0.07 | 0.07 | 0.08 | GI50 [20]: 0.06 µM |
| C/C=C1\NC(=O)c2nc(ccc2F)CNC(=O)C[C@@H](/C=C/CCS)OC(=O)[C@H](CCCCN)NC1=O [Compound 116] | no activity | 0.02 | 0.018 | 0.093 | 0.04 | 0.04 | 0.06 | 0.016 | 0.028 | 0.036 | 0.043 | 0.052 | 0.03 | 0.05 | 0.046 | 0.021 | 0.021 | 0.02 | 0.06 | 0.03 | GI50 [20]: 0.05 µM |
| C/C=C1\NC(=O)c2cc(F)cc(n2)CNC(=O)C[C@@H](/C=C/CCS)OC(=O)[C@H](CCCCN)NC1=O [Compound 117] | no activity | 0.03 | 0.022 | 0.072 | 0.08 | 0.06 | 0.06 | 0.035 | 0.034 | 0.059 | 0.016 | 0.066 | 0.02 | 0.04 | 0.058 | 0.033 | 0.086 | 0.01 | 0.02 | 0.02 | GI50 [20]: 0.07 µM |
| C/C=C1\NC(=O)c2ccc(F)c(n2)CNC(=O)C[C@@H](/C=C/CCS)OC(=O)[C@H](CCCCN)NC1=O [Compound 118] | no activity | 0.03 | 0.041 | 0.035 | 0.07 | 0.08 | 0.03 | 0.029 | 0.027 | 0.057 | 0.061 | 0.041 | 0.02 | 0.08 | 0.031 | 0.039 | 0.053 | 0.04 | 0.06 | 0.02 | GI50 [20]: 0.06 µM |
| C/C=C1\NC(=O)c2cccc(n2)CNC(=O)C[C@@H](/C=C/CCS)OC(=O)[C@H](CCCCNC(=O)OCC2c3ccccc3-c3ccccc32)NC1=O [Compound 119] | no activity | 0.06 | 0.062 | 0.038 | 0.09 | 0.04 | 0.06 | 0.036 | 0.037 | 0.028 | 0.038 | 0.026 | 0.09 | 0.09 | 0.027 | 0.034 | 0.037 | 0.05 | 0.05 | 0.09 | GI50 [20]: 0.04 µM |
| C/C=C1\NC(=O)c2nc(ccc2F)CNC(=O)C[C@@H](/C=C/CCS)OC(=O)[C@H](CCCCNC(=O)OCC2c3ccccc3-c3ccccc32)NC1=O [Compound 120] | no activity | 0.01 | 0.045 | 0.035 | 0.03 | 0.1 | 0.05 | 0.023 | 0.066 | 0.033 | 0.053 | 0.071 | 0.02 | 0.01 | 0.016 | 0.084 | 0.055 | 0.05 | 0.1 | 0.03 | GI50 [20]: 0.03 µM |

From US10065990B2, “Cyclic peptide compound, and preparation method, pharmaceutical composition and use thereof” (HANGZHOU GUANYU BIO-MEDICAL CO., LTD, priority 2013, dated 2018)
